The text below walks through data of ChEMBL document CHEMBL1152349, “Optimization of 2-piperidin-4-yl-acetamides as melanin-concentrating hormone receptor 1 (MCH-R1) antagonists: Designing out hERG inhibition” (Bioorg Med Chem Lett, 2009).

Some results are limits rather than exact numbers.

Data set [1] concerns the target T1, Melanin-concentrating hormone receptor 1 (Homo sapiens, UniProt Q99705). The experiment in a line: Displacement of [125I]MCH from human MCHR1 expressed in HEK293 cells. Type of data set: cell-based. Background: In a radioligand displacement assay an active substance lowers the binding of a labelled ligand.
Data set [2] in a line: Dissociation constant, pKa by pressure assisted capillary electrophoresis. The class given is physicochemical.
The target of data set [3] is T1, Melanin-concentrating hormone receptor 1. As to the kind of experiment: Antagonist activity at human MCHR1 expressed in HEK293 cells assessed as [35S]GTPgammaS accumulation. Type of data set: functional, cell-based.
The subject of another data set is Mus musculus. As to the kind of experiment: Antiobesity activity in DIO mouse model assessed as reduction in weight at 50 umol/kg, po once daily after 21 days. Type of data set: functional. Also noted: scale not given: the % may be the effect or the level left.
Data set [4] has as its target T2, Voltage-gated inwardly rectifying potassium channel KCNH2 (Homo sapiens, UniProt Q12809). The experiment in a line: Inhibition of human ERG expressed in CHO cells by patch clamp assay. The class given is cell-based. A general note: The patch-clamp technique gives a direct electrical read-out from membranes.
The target in data set [5] is Sodium channel protein type 5 subunit alpha (Homo sapiens, UniProt Q14524). The experiment in a line: Inhibition of NaV1.5 sodium channel expressed in CHO cells by patch clamp assay. The class given is cell-based.
Data set [6] concerns the target Melanin-concentrating hormone receptor 2 (Homo sapiens, UniProt Q969V1). The experiment in a line: Displacement of [125I]MCH from human MCHR2 expressed in CHO cells. Type of data set: cell-based.
A further data set deals with Liver microsomes. As to the kind of experiment: Intrinsic clearance in human liver microsomes. The class given is ADME, Microsome. Background: Liver microsomes are vesicles of endoplasmic reticulum, rich in cytochrome P450 enzymes.
Data set [7] has as its target T2, Voltage-gated inwardly rectifying potassium channel KCNH2. As to the kind of experiment: Inhibition of human ERG activation expressed in CHO cells by rubidium efflux assay. The class given is cell-based.

T1 sequence (Q99705 whole entry): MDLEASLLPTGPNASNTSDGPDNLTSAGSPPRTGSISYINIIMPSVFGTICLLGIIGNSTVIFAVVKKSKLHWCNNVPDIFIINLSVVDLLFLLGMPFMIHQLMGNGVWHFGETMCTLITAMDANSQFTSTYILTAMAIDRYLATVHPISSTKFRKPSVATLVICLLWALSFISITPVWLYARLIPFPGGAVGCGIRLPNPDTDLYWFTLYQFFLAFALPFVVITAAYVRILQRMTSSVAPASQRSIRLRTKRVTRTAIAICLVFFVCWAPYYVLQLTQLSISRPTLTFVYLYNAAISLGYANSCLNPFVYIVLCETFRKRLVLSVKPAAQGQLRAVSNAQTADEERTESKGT
T2 sequence (Q12809 whole entry): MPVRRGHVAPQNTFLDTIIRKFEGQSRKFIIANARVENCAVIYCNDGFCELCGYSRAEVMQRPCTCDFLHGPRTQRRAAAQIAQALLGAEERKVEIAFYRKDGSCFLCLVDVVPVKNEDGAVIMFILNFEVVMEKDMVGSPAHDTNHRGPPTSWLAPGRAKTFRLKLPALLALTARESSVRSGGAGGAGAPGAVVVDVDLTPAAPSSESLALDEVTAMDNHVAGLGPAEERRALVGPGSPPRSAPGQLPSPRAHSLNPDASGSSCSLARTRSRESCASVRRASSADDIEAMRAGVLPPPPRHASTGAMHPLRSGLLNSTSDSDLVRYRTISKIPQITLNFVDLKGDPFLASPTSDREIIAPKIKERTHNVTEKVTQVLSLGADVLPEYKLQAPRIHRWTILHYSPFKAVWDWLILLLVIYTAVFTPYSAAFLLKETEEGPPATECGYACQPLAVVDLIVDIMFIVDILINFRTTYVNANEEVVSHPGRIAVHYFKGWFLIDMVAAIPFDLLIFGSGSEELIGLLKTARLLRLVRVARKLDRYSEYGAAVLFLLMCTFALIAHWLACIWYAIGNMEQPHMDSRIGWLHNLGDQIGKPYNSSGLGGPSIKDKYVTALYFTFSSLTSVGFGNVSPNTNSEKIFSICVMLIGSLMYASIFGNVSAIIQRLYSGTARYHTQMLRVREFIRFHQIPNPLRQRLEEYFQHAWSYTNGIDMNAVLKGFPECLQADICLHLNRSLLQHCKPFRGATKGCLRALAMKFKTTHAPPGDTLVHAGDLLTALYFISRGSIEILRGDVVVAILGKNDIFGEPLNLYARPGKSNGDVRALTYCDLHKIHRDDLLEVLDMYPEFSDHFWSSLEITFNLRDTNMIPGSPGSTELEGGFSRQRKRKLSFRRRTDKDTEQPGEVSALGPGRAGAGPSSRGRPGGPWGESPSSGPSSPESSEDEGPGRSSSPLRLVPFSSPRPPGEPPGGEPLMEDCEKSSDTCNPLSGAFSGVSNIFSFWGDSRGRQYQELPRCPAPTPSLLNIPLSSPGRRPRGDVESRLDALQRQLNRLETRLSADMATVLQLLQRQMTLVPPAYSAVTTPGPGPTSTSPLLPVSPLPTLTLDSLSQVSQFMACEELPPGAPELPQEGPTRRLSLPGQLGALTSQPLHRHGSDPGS
Chain of Sodium channel protein type 5 subunit alpha (Q14524 whole entry): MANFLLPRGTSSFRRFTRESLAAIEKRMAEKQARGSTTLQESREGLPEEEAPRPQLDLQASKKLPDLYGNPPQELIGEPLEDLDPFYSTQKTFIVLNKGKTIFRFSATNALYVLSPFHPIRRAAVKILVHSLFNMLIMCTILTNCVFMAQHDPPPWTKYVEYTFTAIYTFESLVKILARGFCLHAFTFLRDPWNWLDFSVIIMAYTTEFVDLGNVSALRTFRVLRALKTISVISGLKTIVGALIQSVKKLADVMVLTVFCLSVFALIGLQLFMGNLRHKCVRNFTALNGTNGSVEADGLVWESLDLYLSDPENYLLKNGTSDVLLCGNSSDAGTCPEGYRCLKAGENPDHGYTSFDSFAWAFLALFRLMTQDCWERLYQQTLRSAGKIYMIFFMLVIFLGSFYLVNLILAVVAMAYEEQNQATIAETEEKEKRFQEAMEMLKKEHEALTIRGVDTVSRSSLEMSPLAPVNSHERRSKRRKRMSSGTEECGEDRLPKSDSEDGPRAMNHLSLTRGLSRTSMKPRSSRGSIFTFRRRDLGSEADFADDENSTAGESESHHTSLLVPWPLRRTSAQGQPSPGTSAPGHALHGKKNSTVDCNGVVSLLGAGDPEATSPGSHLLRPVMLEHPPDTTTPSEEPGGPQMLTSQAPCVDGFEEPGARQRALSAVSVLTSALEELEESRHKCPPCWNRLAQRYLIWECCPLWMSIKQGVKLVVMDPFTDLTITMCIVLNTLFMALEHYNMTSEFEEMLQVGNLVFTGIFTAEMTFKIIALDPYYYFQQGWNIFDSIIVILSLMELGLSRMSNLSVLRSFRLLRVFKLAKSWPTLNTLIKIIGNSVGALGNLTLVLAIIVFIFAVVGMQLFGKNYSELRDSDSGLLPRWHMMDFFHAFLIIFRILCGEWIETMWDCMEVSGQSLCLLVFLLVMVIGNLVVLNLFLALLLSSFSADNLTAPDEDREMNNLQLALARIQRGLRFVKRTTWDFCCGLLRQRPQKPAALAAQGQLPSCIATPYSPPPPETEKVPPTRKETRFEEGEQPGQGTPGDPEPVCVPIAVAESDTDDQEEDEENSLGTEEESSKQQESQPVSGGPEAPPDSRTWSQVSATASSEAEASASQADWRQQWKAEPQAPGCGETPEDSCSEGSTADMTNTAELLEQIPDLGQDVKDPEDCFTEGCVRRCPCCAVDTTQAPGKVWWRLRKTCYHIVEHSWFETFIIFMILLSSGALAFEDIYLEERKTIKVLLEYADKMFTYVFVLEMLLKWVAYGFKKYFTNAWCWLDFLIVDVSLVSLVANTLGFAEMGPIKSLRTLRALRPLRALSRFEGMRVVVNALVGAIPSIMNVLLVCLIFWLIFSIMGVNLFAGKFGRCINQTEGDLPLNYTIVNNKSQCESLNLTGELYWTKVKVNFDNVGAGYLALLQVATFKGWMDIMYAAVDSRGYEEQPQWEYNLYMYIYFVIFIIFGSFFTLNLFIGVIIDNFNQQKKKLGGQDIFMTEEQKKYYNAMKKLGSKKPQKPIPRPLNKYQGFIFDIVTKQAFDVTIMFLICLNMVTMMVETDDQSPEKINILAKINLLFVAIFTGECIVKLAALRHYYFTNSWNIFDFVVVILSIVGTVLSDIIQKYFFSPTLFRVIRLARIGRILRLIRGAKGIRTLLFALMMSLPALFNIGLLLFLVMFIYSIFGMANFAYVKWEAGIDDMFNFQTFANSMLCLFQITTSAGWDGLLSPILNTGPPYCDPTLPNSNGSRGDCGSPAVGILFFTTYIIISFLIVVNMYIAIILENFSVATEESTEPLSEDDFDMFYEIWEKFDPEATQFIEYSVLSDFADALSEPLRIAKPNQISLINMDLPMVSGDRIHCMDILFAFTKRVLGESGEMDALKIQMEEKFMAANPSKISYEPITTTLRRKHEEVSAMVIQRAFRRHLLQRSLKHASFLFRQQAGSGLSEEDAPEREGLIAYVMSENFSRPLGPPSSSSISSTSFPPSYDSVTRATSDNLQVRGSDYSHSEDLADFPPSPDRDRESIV
Chain of Melanin-concentrating hormone receptor 2 (Q969V1 whole entry): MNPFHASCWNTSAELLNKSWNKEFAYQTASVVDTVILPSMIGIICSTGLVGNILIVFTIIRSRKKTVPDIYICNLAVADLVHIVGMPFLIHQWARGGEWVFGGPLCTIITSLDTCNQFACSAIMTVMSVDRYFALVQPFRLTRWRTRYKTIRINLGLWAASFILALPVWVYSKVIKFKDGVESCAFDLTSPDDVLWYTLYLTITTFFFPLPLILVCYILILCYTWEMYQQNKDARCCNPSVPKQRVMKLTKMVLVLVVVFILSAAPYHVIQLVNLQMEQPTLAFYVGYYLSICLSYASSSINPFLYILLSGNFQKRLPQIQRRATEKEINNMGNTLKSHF

For orientation: IC50 means the concentration that inhibits the measured activity by half. Usually pKa stands for the negative logarithm of the acid dissociation constant. Regarding `O=C(CC1CCN(Cc2ccn(-c3ccc(C(F)(F)F)cn3)c2)CC1)NC(c1ccc(F)cc1)c1ccc(F)cc1`, the IC50 in data set [1] stood at 0.013 µM; in data set [3], 0.017 µM. Also, the pKa in data set [2] came to 9.1. Besides, the Activity in the data set with Mus musculus is given as 18.2%.

For the compound `O=C(CC1CCN(Cc2ccn(-c3ccc(C(F)(F)F)cc3)c2)CC1)NC(c1ccc(F)cc1)c1ccc[n+]([O-])c1` (stereo not given), the values for the IC50 in [1] and in [4] were 0.021 µM and > 31.6 µM, respectively.

For the compound `O=C(CC1CCN(Cc2ccn(-c3ccc(C(F)(F)F)cc3)c2)CC1)NC(c1ccc(F)cc1)c1c[nH]c(=O)c(Cl)c1` (stereo not given), the IC50 was 0.006 µM in data set [1]; > 31.6 µM in data set [4]; > 31.6 µM in data set [5]; 0.021 µM in [3]; 4.6 µM in data set [6]. For the same compound, the clearance with Liver microsomes is < 15 µL/min/mg.

`O=C(CN1CCN(Cc2ccn(-c3ccc(C(F)(F)F)cn3)c2)CC1)NC(c1ccc(F)cc1)c1ccc(F)cc1`: the IC50 in data set [1] came out at 0.055 µM; in data set [4], 0.8 µM. In data set [2], the pKa worked out at 6.5.

On to `O=C(CC1CCN(Cc2ccn(-c3ccc(C(F)(F)F)cc3)c2)CC1)N(CCCO)Cc1ccc(F)cc1`, for which the IC50 worked out at 0.004 µM in data set [1] and 0.63 µM in data set [4].

Consider `COCC(O)CN(Cc1ccc(F)cc1)C(=O)CC1CCN(Cc2ccc(-c3ccc(Cl)cc3)o2)CC1` (stereo not given), for which the half-inhibitory concentration (IC50) in data set [1] was 0.15 µM; in [4], 1.09 µM.

As to `CCCCC(NC(=O)CC1CCN(Cc2ccn(-c3ccc(C(F)(F)F)cc3)c2)CC1)c1ccc(OC)nc1` (stereo not given), the concentration for half-maximal inhibition (IC50) in data set [1] was determined as 0.005 µM; in data set [4], 1 µM.

In data set [1], `O=C(NCc1ccc(O)cc1Cl)C1CCN(Cc2ccn(-c3ccc(C(F)(F)F)cc3)c2)CC1` gave a 50% inhibitory concentration (IC50) of 0.03 µM.

Compound `Cn1cccc1CNC(=O)CC1CCN(Cc2ccn(-c3ccc(C(F)(F)F)cc3)c2)CC1` displayed an IC50 in data set [1] of 0.313 µM.

Regarding `CN(CCC(=O)N1CCCC1)C(=O)CC1CCN(Cc2ccn(-c3ccc(C(F)(F)F)cc3)c2)CC1`, in data set [1], the half-maximal inhibitory concentration (IC50) worked out at 0.142 µM.

Consider `O=C(CC1CCN(Cc2ccn(-c3ccc(C(F)(F)F)cc3)c2)CC1)NC(c1ccncc1)c1ccc(Cl)cc1` (stereo not given), for which, in data set [1], the IC50 stood at 0.017 µM.

For `COc1ccc(C(NC(=O)CC2CCN(Cc3ccn(-c4ccc(C(F)(F)F)cc4)c3)CC2)c2ccc(F)cc2)cn1` (stereo not given), the IC50 in [1] came out at 0.002 µM; in data set [4] it was 1.75 µM.

Take `O=C(CC1CCN(Cc2ccn(-c3ccc(C(F)(F)F)cc3)c2)CC1)NC(c1ccc(F)cc1)c1ccc(=O)[nH]c1` (stereo not given): the results for the half-maximal inhibitory concentration (IC50) in data set [1], in data set [4] and in data set [3] were 0.002 µM, > 31.6 µM and 0.025 µM, respectively.

On to `O=C(NCc1ccc(Cl)cc1Cl)N1CCN(Cc2ccn(-c3ccc(C(F)(F)F)cc3)c2)CC1`, for which the results for the 50% inhibitory concentration (IC50) in [1] and in data set [7] were 0.008 µM and 1.6 µM, respectively. For the same compound, the pKa in data set [2] is 6.2.

With `O=C(CC1CCN(Cc2ccc(-c3ccc(Cl)cc3)o2)CC1)NCC(O)C(F)(F)F` (stereo not given), the IC50 in data set [1] worked out at 0.815 µM; in data set [4], 1.02 µM.

For the compound `O=C(NCC1(O)CCCCC1)C1CCN(Cc2ccn(-c3ccc(C(F)(F)F)cc3)c2)CC1`, the IC50 in data set [1] is 0.04 µM; in [4], 11.7 µM.

Turning to `O=C(NC1CCN(Cc2ccn(-c3ccc(C(F)(F)F)cc3)c2)CC1)NC(c1ccccc1)c1ccccc1`, the IC50 amounted to 0.039 µM in data set [1] and 3.8 µM in data set [4]. Further, in data set [2], the pKa is 9.2.

Consider `O=C(NCc1ccc(Cl)cc1O)C1CCN(Cc2ccn(-c3ccc(C(F)(F)F)cc3)c2)CC1`, for which the IC50 in data set [1] is 0.022 µM; in data set [4], 1.55 µM.

`O=C(C1CCCCN1C(=O)CC1CCN(Cc2ccn(-c3ccc(C(F)(F)F)cc3)c2)CC1)N1CCCC1` (stereo not given): the 50% inhibitory concentration (IC50) in data set [1] came out at 0.066 µM.

As to `O=C(CC1CCN(Cc2ccn(-c3ccc(C(F)(F)F)cc3)c2)CC1)NC(c1ccccc1)c1cnc[nH]1` (stereo not given), the IC50 in [1] was 0.017 µM; in data set [4] it was 11.4 µM.

For the compound `O=C(NCc1ccc(Cl)cc1Cl)C1CCN(Cc2ccn(-c3ccc(C(F)(F)F)cn3)c2)CC1`, the IC50 in [1] amounted to 0.444 µM; in [7], 3.5 µM. The same compound gave a pKa in data set [2] of 8.3.

For `O=C(NCCc1ccccn1)C1CCN(Cc2ccn(-c3ccc(C(F)(F)F)cc3)c2)CC1`, the IC50 in data set [1] is 0.339 µM; in [4] it was 10 µM.

In the case of `CCN(CC)C(=O)C1CCCN(C(=O)CC2CCN(Cc3ccn(-c4ccc(C(F)(F)F)cc4)c3)CC2)C1` (stereo not given), the IC50 in data set [1] came to 0.037 µM; in [4], 16 µM.

On to `Cc1nccn1CC(NC(=O)CC1CCN(Cc2ccn(-c3ccc(C(F)(F)F)cc3)c2)CC1)c1ccccc1` (stereo not given), for which the IC50 in data set [1] amounted to 0.065 µM; in [4] it was 26.6 µM.

As to `O=C(CC1CCN(Cc2ccn(-c3ccc(C(F)(F)F)cc3)c2)CC1)NC(c1ccccc1)c1ccccn1` (stereo not given), the values for the concentration for half-maximal inhibition (IC50) in [1] and in data set [4] were 0.041 µM and 2.3 µM, respectively.

Compound `O=C(NCc1c(O)cc(Cl)cc1Cl)C1CCN(Cc2ccn(-c3ccc(C(F)(F)F)cc3)c2)CC1` displayed an IC50 in [1] of 0.144 µM.

In the case of `CCCCC(NC(=O)CC1CCN(Cc2ccn(-c3ccc(C(F)(F)F)cc3)c2)CC1)c1ccc(=O)[nH]c1` (stereo not given), the concentration for half-maximal inhibition (IC50) in data set [1] amounted to 0.001 µM; in data set [3] it was 0.019 µM.

Take `O=C(CC1CCN(Cc2ccn(-c3ccc(C(F)(F)F)cc3)c2)CC1)N1CCN(C(=O)N2CCCC2)CC1`: the 50% inhibitory concentration (IC50) was determined as 0.417 µM in [1] and 14 µM in [4].

As for `O=C(CC1CCN(Cc2ccn(-c3ccc(C(F)(F)F)cc3)c2)CC1)N1CCOC(C(=O)N2CCCC2)C1` (stereo not given), in data set [1], the IC50 turned out to be 0.173 µM.

`O=C(CC1CCN(Cc2ccn(-c3ccc(C(F)(F)F)cc3)c2)CC1)N1CCCC(C(=O)N2CCCC2)C1` (stereo not given): the figures for the IC50 in [1] and in [4] were 0.071 µM and 31 µM, respectively.

Take `CC(NC(=O)CC1CCN(Cc2ccn(-c3ccc(C(F)(F)F)cc3)c2)CC1)c1ccc(=O)[nH]c1` (stereo not given): the figures for the IC50 in data set [1] and in data set [4] were 0.067 µM and > 31.6 µM, respectively.

Consider `O=C(CC1CCN(Cc2ccc(-c3ccc(Cl)cc3)o2)CC1)N1CCCC(CO)C1` (stereo not given), for which the IC50 in data set [1] came out at 0.597 µM; in data set [4], 2.34 µM.

As to `O=C(CC1CCN(Cc2ccn(-c3ccc(C(F)(F)F)cc3)c2)CC1)NC(c1ccc(F)cc1)c1cccnc1` (stereo not given), the IC50 in data set [1] came out at 0.028 µM; in data set [4], 2.17 µM.
